This is an account of results in patent EP1733758A1, “Methods for administration of a farnesyl dibenzodiazepinone” (Ecopia Biosciences Inc., priority 2005, dated 2006).

For data set [1], the system named is rat glioma (C6) tumor xenograft. The data set can be described thus: Rat C6 glioblastoma subcutaneous tumor xenograft antitumor efficacy study. The format is in vivo, female athymic (nu/nu) nude mice. Particulars: for %TGI: analyzed at Day 18, P < 0.0001. On the procedure:
The rat C6 glioblastoma antitumor efficacy study was performed at INSERM U318 (Grenoble, France). The rat C6 glioblastoma subcutaneous tumor model is based on the use of a rat C6 cell line obtained from a rat glial tumor induced by N-nitrosomethylurea (Benda et al. (1968), Science, vol 161, 370-371). These animal studies were done according to ethical guidelines of animal experimentation (Charte du comité d'éthique du CNRS, 2003) and the English "Guidelines for the welfare of animals in experimental neoplasia (Second Edition)" from the United Kingdom Coordinating Committee on Cancer Research (UKCCCR) (Workman et al. (1998), Br. J. Cancer, vol 77, no 1, 1-10). On each dosing day, Formula I stock solutions (24 and 40 mg/mL in 20% ethanol, 20% PEG-400 and 60% Tween 80) were diluted with sterile 5% dextrose in water (D5W) to prepare dosing solutions of 6 mg/mL and 10 mg/mL of Formula I in a vehicle consisting of 5% ethanol, 5% PEG-400, 15% Tween-80, and 75% D5W.
For the rat glioma antitumor efficacy study, female athymic (nu/nu) nude mice (6-7 weeks of age) were inoculated SC with 5 x 10^6 C6 cells (day 0). Tumor bearing animals were randomized (10 per group) when tumors were palpable (day 6). Group 1 (control group) received drug-free vehicle (5% ethanol, 5% PEG-400, 15% Tween-80, and 75% D5W) IP (5 mL/kg), once daily on days 6-18 (q1d x 13). Group 2 received Formula I (6 mg/mL) IP at 20 mg/kg, once daily on days 6 to 13 and then at 10 mg/kg once daily on days 14 to 18. Group 3 received Formula I (6 mg/mL) SC at 30 mg/kg, once daily on days 6 to 13 and then at 15 mg/kg once daily on days 14 to 18. Group 4 received Formula I (10 mg/mL) IV at 100 mg/kg q1d x 5 for 2 weeks. Each animal was euthanized when its tumor reached the predetermined endpoint size (∼2,500 mm^3) or at the end of the study (D18). Treatment period was over 13 days, from day 6 to day 18, post tumor cell inoculation. Tumor growth inhibition (TGI) was calculated on day 16 post tumor cell inoculation, at which time some animals from the vehicle control group had to be sacrificed due to tumor burden.
(§1) In this model and the models of Examples 3, 6 and 7, tumor growth was followed every other day by measuring tumor length (L) and width (W) using a calliper. Measurements were converted to tumor volumes (TV; mm^3) using the standard formula, TV = (L xW^2)/2. Tumor volume at day n was expressed as relative tumor volume (RTV) according to the following formula RTV = TVn / TV0, where TVn is the tumor volume at day n and TV0 is the tumor volume at day 0. The percentage of tumor growth inhibition (%TGI) was determined by 1 ― (mean RTV of treated group/ mean RTV of control group) x 100. […] Statistical analysis was calculated by the two-tailed unpaired t test using the Prism software. Animals were weighed at least twice weekly during and after treatment until completion of the study. The mice were examined frequently for overt signs of any adverse drug-related side effects.
When the time to endpoint (TTE) for each mouse was also calculated by the following equation: TTE = (log10(endpoint volume)−b)/(m) [formula] Where TTE is expressed in days, endpoint volume is in mm^3, b is the intercept, and m is the slope of the line obtained by linear regression of a log-transformed tumor data set. This value was used to determined % tumor growth delay (%TGD), defined as the increase in median TTE for a treatment group compared to the control group expressed in days, or as a percentage of the median TTE of the control group.

The subject of data set [2] is human breast tumor (MDA-MB-231) xenografts. The data set can be described thus: Human MDA-MB-231 breast tumor xenograft efficacy. The format is in vivo, HRLN female nude mice. The conditions noted are these: for T/C / %T/C: day 21; for %T/C: P < 0.0001. On the procedure:
The antitumor activity of the compound of Formula I was further tested in a human MD-MB-231 breast cancer model in mice. HRLN female nude mice (8 weeks of age) were treated with 5x10^6 MDA-MB-231 tumor cells (SC) in the right flank. Animals were randomized (ten per group) when tumors reach an average size of 80 - 120 mg and treatment began according to the table below. For these studies, the compound of Formula I was formulated in 5% ethanol, 5% PEG-400, 15% Polysorbate 80, and 75% of water containing 5% dextrose.
Tumor measurements were taken twice weekly using calipers and were converted to tumor mass (in milligrams) using the formula: with^2 (mm) x length (mm) x 0.52. Body weights were also recorded twice weekly. Statistical analysis was done using the unpaired two-tailed Student's t test.
For orientation: A xenograft is tissue or cells of one species grown in another, often human tumour cells in immunodeficient mice.

Data set [3] deals with human glioma (U-87MG) tumor xenograft. The data set can be described thus: Human U-87MG glioblastoma xenograft antitumor efficacy study. Format: in vivo, female athymic (nu/nu) nude mice. The conditions noted are these: SC bolus 30 mg/kg q1d x 5 over 2 weeks.
From the text: as §1
The human U-87 MG (ATCC® no. HTB-14™) glioblastoma antitumor efficacy study was performed at INSERM U318 (Grenoble, France). […]
For the human glioblastoma antitumor efficacy study, female athymic (nu/nu) nude mice (6-7 weeks of age) were inoculated SC with 5 x 10^6 U-87MG cells (day 0). […] Tumor growth inhibition (TGI) was calculated on day 34 post tumor cell inoculation, at which time some animals from the vehicle control group had to be sacrificed due to tumor burden.

The T/C is the result in the treated group divided by that in the control group, in per cent. With `CC(C)=CCC/C(C)=C/CC/C(C)=C/CN1C(=O)c2cccc(O)c2Nc2c(O)cc(O)cc21` [Formula I, 10-farnesyl-4,6,8-trihydroxy-dibenzodiazepin-11-one], the “Maximum body weight loss” value in data set [1] (IP 20 mg/kg (Q1D x 8) followed by 10 mg/kg (Q1D x 7), Day 13) is 15%; in data set [1] (SC 30 mg/kg (Q1D x 8) followed by 15 mg/kg (Q1D x 7)), 11%. For the same compound, in data set [1] (IV bolus 100 mg/kg (Q1D x 5) over 2 weeks), the “difference in tumor volume relative to the vehicle control” value was “No significant difference”. Further, the body weight loss result in data set [1] (IV group, 100 mg/kg q1d x 5 for 2 weeks) is on record as “No significant body weight loss”; in data set [3] it was “no significant body weight loss”. Further, the “%TGI” value is recorded as 66% in data set [1] (daily bolus IP 20 then 10 mg/kg); 60% in data set [1] (daily bolus SC 30 then 15 mg/kg); 36% in data set [3] (day 34, P = 0.05). For the same compound, the T/C is given as 58% in data set [2] (IP 30 mg/kg every three days x 7, P = 0.0007) and 68% in data set [2] (SC 50 mg/kg every three days x 7, P= 0.0019). The “%T/C” value in data set [2] (SC 20 mg/kg everyday for 21 days) is recorded as 40%; in data set [2] (SC 30 mg/kg days 1 to 5, 8 to 12), 35%. For the same compound, in data set [2] (bolus intravenous treatment (100 mg/kg, 5/2/5/2/5)), the antitumor activity entry is reported as “did not result in activity”.
